According to ChEMBL document CHEMBL3885881, “DrugMatrix”:

Species on record: Rattus norvegicus
Assay: DrugMatrix - Regimen: Daily Repeat
Format: toxicity, organism-based, Sprague-Dawley
Set-up: regimen Daily Repeat, gender Male, age 6-8 weeks
Conditions: in vivo, po, route oral GAVAGE, vehicle .5 % CMC; for BASOPHIL / EOSINOPHIL / ERYTHROCYTE COUNT / HEMATOCRIT / HEMOGLOBIN / LYMPHOCYTE / MEAN CORPUSCULAR HEMOGLOBIN / MEAN CORPUSCULAR HEMOGLOBIN CONCENTRATION / MEAN CORPUSCULAR VOLUME / MONOCYTE / NEUTROPHIL / PLATELET COUNT: tissue Blood; for ALANINE AMINOTRANSFERASE / ALBUMIN / ALKALINE PHOSPHATASE / ASPARTATE AMINOTRANSFERASE / BLOOD UREA NITROGEN / CHLORIDE / CHOLESTEROL / CREATINE PHOSPHOKINASE / CREATININE / GLUCOSE / PHOSPHORUS / POTASSIUM / SODIUM / TOTAL BILIRUBIN / TOTAL PROTEIN: tissue Plasma
[1] = 0 mg/kg, 72 h, dose level Control, time 3 day
[2] = 0 mg/kg, 120 h, dose level Control, time 5 day
[3] = 10 mg/kg, 72 h, dose level Low, time 3 day
[4] = 10 mg/kg, 120 h, dose level Low, time 5 day
[5] = 750 mg/kg, 72 h, dose level High, time 3 day
[6] = 750 mg/kg, 120 h, dose level High, time 5 day

SMILES: OCCN(CCO)c1nc(N2CCCCC2)c2nc(N(CCO)CCO)nc(N3CCCCC3)c2n1 [DIPYRIDAMOLE]
- BASOPHIL [1]: 0%
- EOSINOPHIL [1]: 0%
- ERYTHROCYTE COUNT [1]: 6.34 x10E6/uL
- HEMATOCRIT [1]: 37.62%
- HEMOGLOBIN [1]: 14.82 G/DL
- LYMPHOCYTE [1]: 87.5%
- MEAN CORPUSCULAR HEMOGLOBIN [1]: 23.48 pg
- MEAN CORPUSCULAR HEMOGLOBIN CONCENTRATION [1]: 39.5 G/DL
- MEAN CORPUSCULAR VOLUME [1]: 59.45 fL
- MONOCYTE [1]: 1.67%
- NEUTROPHIL [1]: 10.83%
- PLATELET COUNT [1]: 1074.83 x10E3/uL
- ALANINE AMINOTRANSFERASE [1]: 36.5 u/L
- ALBUMIN [1]: 3.9 G/DL
- ALKALINE PHOSPHATASE [1]: 370.17 u/L
- ASPARTATE AMINOTRANSFERASE [1]: 63.17 u/L
- BLOOD UREA NITROGEN [1]: 16.83 mg/dL
- CHLORIDE [1]: 99.33 MEQ/L
- CHOLESTEROL [1]: 64.33 mg/dL
- CREATINE PHOSPHOKINASE [1]: 127 u/L
- CREATININE [1]: 0.55 mg/dL
- GLUCOSE [1]: 173.5 mg/dL
- PHOSPHORUS [1]: 10.08 mg/dL
- POTASSIUM [1]: 6.23 MEQ/L
- SODIUM [1]: 143.5 MEQ/L
- TOTAL BILIRUBIN [1]: 0.52 mg/dL
- TOTAL PROTEIN [1]: 6.35 G/DL
- BASOPHIL [2]: 0%
- EOSINOPHIL [2]: 0.17%
- ERYTHROCYTE COUNT [2]: 6.12 x10E6/uL
- HEMATOCRIT [2]: 37.08%
- HEMOGLOBIN [2]: 14.82 G/DL
- LYMPHOCYTE [2]: 83.33%
- MEAN CORPUSCULAR HEMOGLOBIN [2]: 24.25 pg
- MEAN CORPUSCULAR HEMOGLOBIN CONCENTRATION [2]: 39.97 G/DL
- MEAN CORPUSCULAR VOLUME [2]: 60.65 fL
- MONOCYTE [2]: 1.5%
- NEUTROPHIL [2]: 15%
- PLATELET COUNT [2]: 1042.83 x10E3/uL
- ALANINE AMINOTRANSFERASE [2]: 46 u/L
- ALBUMIN [2]: 3.82 G/DL
- ALKALINE PHOSPHATASE [2]: 369.5 u/L
- ASPARTATE AMINOTRANSFERASE [2]: 65 u/L
- BLOOD UREA NITROGEN [2]: 16.33 mg/dL
- CHLORIDE [2]: 100.67 MEQ/L
- CHOLESTEROL [2]: 57.17 mg/dL
- CREATINE PHOSPHOKINASE [2]: 130 u/L
- CREATININE [2]: 0.53 mg/dL
- GLUCOSE [2]: 163.33 mg/dL
- PHOSPHORUS [2]: 9.53 mg/dL
- POTASSIUM [2]: 6.27 MEQ/L
- SODIUM [2]: 144.83 MEQ/L
- TOTAL BILIRUBIN [2]: 0.55 mg/dL
- TOTAL PROTEIN [2]: 6.32 G/DL
- BASOPHIL [3]: 0%
- EOSINOPHIL [3]: 0.33%
- ERYTHROCYTE COUNT [3]: 6.75 x10E6/uL
- HEMATOCRIT [3]: 39.77%
- HEMOGLOBIN [3]: 15.7 G/DL
- LYMPHOCYTE [3]: 90.67%
- MEAN CORPUSCULAR HEMOGLOBIN [3]: 23.23 pg
- MEAN CORPUSCULAR HEMOGLOBIN CONCENTRATION [3]: 39.53 G/DL
- MEAN CORPUSCULAR VOLUME [3]: 58.8 fL
- MONOCYTE [3]: 0.33%
- NEUTROPHIL [3]: 8.67%
- PLATELET COUNT [3]: 1406 x10E3/uL
- ALANINE AMINOTRANSFERASE [3]: 42.67 u/L
- ALBUMIN [3]: 4.03 G/DL
- ALKALINE PHOSPHATASE [3]: 406.33 u/L
- ASPARTATE AMINOTRANSFERASE [3]: 71.33 u/L
- BLOOD UREA NITROGEN [3]: 15.67 mg/dL
- CHLORIDE [3]: 100.33 MEQ/L
- CHOLESTEROL [3]: 71 mg/dL
- CREATINE PHOSPHOKINASE [3]: 229.67 u/L
- CREATININE [3]: 0.53 mg/dL
- GLUCOSE [3]: 148.67 mg/dL
- PHOSPHORUS [3]: 11.33 mg/dL
- POTASSIUM [3]: 6.33 MEQ/L
- SODIUM [3]: 144.33 MEQ/L
- TOTAL BILIRUBIN [3]: 0.27 mg/dL
- TOTAL PROTEIN [3]: 6.57 G/DL
- BASOPHIL [4]: 0%
- EOSINOPHIL [4]: 0.5%
- ERYTHROCYTE COUNT [4]: 6.79 x10E6/uL
- HEMATOCRIT [4]: 39%
- HEMOGLOBIN [4]: 15.6 G/DL
- LYMPHOCYTE [4]: 87%
- MEAN CORPUSCULAR HEMOGLOBIN [4]: 23 pg
- MEAN CORPUSCULAR HEMOGLOBIN CONCENTRATION [4]: 40.05 G/DL
- MEAN CORPUSCULAR VOLUME [4]: 57.45 fL
- MONOCYTE [4]: 0.5%
- NEUTROPHIL [4]: 12%
- PLATELET COUNT [4]: 1171.5 x10E3/uL
- ALANINE AMINOTRANSFERASE [4]: 35 u/L
- ALBUMIN [4]: 3.8 G/DL
- ALKALINE PHOSPHATASE [4]: 332.33 u/L
- ASPARTATE AMINOTRANSFERASE [4]: 57 u/L
- BLOOD UREA NITROGEN [4]: 15 mg/dL
- CHLORIDE [4]: 100.67 MEQ/L
- CHOLESTEROL [4]: 70.33 mg/dL
- CREATINE PHOSPHOKINASE [4]: 146.33 u/L
- CREATININE [4]: 0.6 mg/dL
- GLUCOSE [4]: 207 mg/dL
- PHOSPHORUS [4]: 11.67 mg/dL
- POTASSIUM [4]: 5.6 MEQ/L
- SODIUM [4]: 143.67 MEQ/L
- TOTAL BILIRUBIN [4]: 0.43 mg/dL
- TOTAL PROTEIN [4]: 6.33 G/DL
- BASOPHIL [5]: 0%
- EOSINOPHIL [5]: 0.33%
- ERYTHROCYTE COUNT [5]: 6.25 x10E6/uL
- HEMATOCRIT [5]: 37.2%
- HEMOGLOBIN [5]: 14.47 G/DL
- LYMPHOCYTE [5]: 88.33%
- MEAN CORPUSCULAR HEMOGLOBIN [5]: 23.2 pg
- MEAN CORPUSCULAR HEMOGLOBIN CONCENTRATION [5]: 38.9 G/DL
- MEAN CORPUSCULAR VOLUME [5]: 59.57 fL
- MONOCYTE [5]: 1%
- NEUTROPHIL [5]: 10.33%
- PLATELET COUNT [5]: 1166.33 x10E3/uL
- ALANINE AMINOTRANSFERASE [5]: 38 u/L
- ALBUMIN [5]: 3.6 G/DL
- ALKALINE PHOSPHATASE [5]: 276.67 u/L
- ASPARTATE AMINOTRANSFERASE [5]: 56.33 u/L
- BLOOD UREA NITROGEN [5]: 13.33 mg/dL
- CHLORIDE [5]: 99 MEQ/L
- CHOLESTEROL [5]: 75.67 mg/dL
- CREATINE PHOSPHOKINASE [5]: 140 u/L
- CREATININE [5]: 0.53 mg/dL
- GLUCOSE [5]: 163.67 mg/dL
- PHOSPHORUS [5]: 11.63 mg/dL
- POTASSIUM [5]: 6.2 MEQ/L
- SODIUM [5]: 143 MEQ/L
- TOTAL BILIRUBIN [5]: 0.3 mg/dL
- TOTAL PROTEIN [5]: 5.77 G/DL
- BASOPHIL [6]: 0%
- EOSINOPHIL [6]: 0%
- ERYTHROCYTE COUNT [6]: 6.47 x10E6/uL
- HEMATOCRIT [6]: 38.13%
- HEMOGLOBIN [6]: 15 G/DL
- LYMPHOCYTE [6]: 90.33%
- MEAN CORPUSCULAR HEMOGLOBIN [6]: 23.2 pg
- MEAN CORPUSCULAR HEMOGLOBIN CONCENTRATION [6]: 39.33 G/DL
- MEAN CORPUSCULAR VOLUME [6]: 58.97 fL
- MONOCYTE [6]: 0.33%
- NEUTROPHIL [6]: 9.33%
- PLATELET COUNT [6]: 1245.33 x10E3/uL
- ALANINE AMINOTRANSFERASE [6]: 40 u/L
- ALBUMIN [6]: 3.73 G/DL
- ALKALINE PHOSPHATASE [6]: 320.33 u/L
- ASPARTATE AMINOTRANSFERASE [6]: 55 u/L
- BLOOD UREA NITROGEN [6]: 13.33 mg/dL
- CHLORIDE [6]: 98.33 MEQ/L
- CHOLESTEROL [6]: 72 mg/dL
- CREATINE PHOSPHOKINASE [6]: 136.67 u/L
- CREATININE [6]: 0.57 mg/dL
- GLUCOSE [6]: 158 mg/dL
- PHOSPHORUS [6]: 10.37 mg/dL
- POTASSIUM [6]: 6.03 MEQ/L
- SODIUM [6]: 144 MEQ/L
- TOTAL BILIRUBIN [6]: 0.4 mg/dL
- TOTAL PROTEIN [6]: 5.97 G/DL
